What was measured:
[1] = target: Serine/threonine-protein kinase Sgk1 (Homo sapiens) (UniProt O00141); experiment: Inhibition of SGK (unknown origin) at 200 nM by electrophoretic mobility shift assay
[2] = target: RAF proto-oncogene serine/threonine-protein kinase (Homo sapiens) (UniProt P04049); experiment: Inhibition of RAF1 (unknown origin) at 200 nM by ELISA
[3] = target: T1, Glycogen synthase kinase-3 beta (Homo sapiens, UniProt P49841); experiment: Inhibition of GSK3beta (unknown origin) by electrophoretic mobility shift assay
Target sequence in this assay (P49841 whole entry): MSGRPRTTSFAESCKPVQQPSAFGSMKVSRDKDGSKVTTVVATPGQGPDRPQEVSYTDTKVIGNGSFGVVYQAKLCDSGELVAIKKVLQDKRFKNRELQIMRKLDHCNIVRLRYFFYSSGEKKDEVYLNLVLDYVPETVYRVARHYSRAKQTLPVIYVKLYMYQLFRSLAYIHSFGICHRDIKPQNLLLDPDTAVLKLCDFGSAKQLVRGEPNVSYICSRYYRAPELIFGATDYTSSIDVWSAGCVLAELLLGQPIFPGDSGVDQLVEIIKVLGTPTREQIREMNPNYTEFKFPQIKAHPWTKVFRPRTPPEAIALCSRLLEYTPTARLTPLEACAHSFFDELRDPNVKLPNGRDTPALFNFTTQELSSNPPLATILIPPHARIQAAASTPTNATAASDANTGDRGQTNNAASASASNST

[4] = target: T2, Death-associated protein kinase 1 (Homo sapiens, UniProt P53355); experiment: Inhibition of DAPK1 (unknown origin) by electrophoretic mobility shift assay
[5] = target: T3, Serine/threonine-protein kinase pim-1 (Homo sapiens, UniProt P11309); experiment: Inhibition of PIM1 (unknown origin) by electrophoretic mobility shift assay
[6] = target: Serine/threonine-protein kinase pim-3 (Homo sapiens, UniProt Q86V86); experiment: Inhibition of PIM3 (unknown origin) using FL-Peptide 1 (5-FAM-AKRRRLSSLRA-COOH) substrate incubated for 2 hrs by electrophoretic mobility shift assay
[7] = Growth inhibition of human PANC1 cells after 72 hrs by CCK-8 assay; format: functional, cell-based; settings: PANC-1, 72 h
hERG (KCNH2) = hERG (KCNH2) (Homo sapiens, UniProt Q12809); experiment: Inhibition of human ERG at 10 uM by patch-clamp method
CYP3A4 = CYP3A4 (Homo sapiens, UniProt P08684); experiment: Inhibition of CYP3A4 (unknown origin) at 10 uM; format: ADME
[8] = Growth inhibition of human MIAPaCa2 cells after 72 hrs by CCK-8 assay; format: functional, cell-based; settings: MIA PaCa-2, 72 h
[9] = Growth inhibition of human L3.6PL cells after 72 hrs by CCK-8 assay; format: functional
[10] = Growth inhibition of human PCI35 cells after 72 hrs by CCK-8 assay; format: functional, cell-based; settings: PCI35, 72 h
[11] = Growth inhibition of human PCI66 cells after 72 hrs by CCK-8 assay; format: functional, cell-based; settings: PCI66, 72 h
[12] = Antitumor activity against human PCI66 cells xenografted in BALB/c nu/nu mouse assessed as reduction in tumor volume at 30 mg/kg, ip qd dosed for 5 days followed by 2 days cessation measured 33 days after tumor inoculation relative to control; format: functional
Mus musculus = experiment: Toxicity in BALB/c nu/nu mouse xenografted with human PCI66 cells assessed as affect on body weight at 30 mg/kg, ip qd dosed for 5 days followed by 2 days cessation measured 33 days after tumor inoculation; format: organism-based; settings: in vivo, 792 h
[13] = target: Epidermal growth factor receptor (Homo sapiens) (UniProt P00533); experiment: Inhibition of EGFR (unknown origin) at 200 nM by electrophoretic mobility shift assay
[14] = target: Insulin-like growth factor 1 receptor (Homo sapiens) (UniProt P08069); experiment: Inhibition of IGF1R (unknown origin) at 200 nM by electrophoretic mobility shift assay
[15] = target: Tyrosine-protein kinase ITK/TSK (Homo sapiens) (UniProt Q08881); experiment: Inhibition of ITK (unknown origin) at 200 nM by electrophoretic mobility shift assay
[16] = target: Protein-tyrosine kinase 2-beta (Homo sapiens) (UniProt Q14289); experiment: Inhibition of PYK2 (unknown origin) at 200 nM by electrophoretic mobility shift assay
[17] = target: Proto-oncogene tyrosine-protein kinase Src (Homo sapiens) (UniProt P12931); experiment: Inhibition of SRC (unknown origin) at 200 nM by electrophoretic mobility shift assay
[18] = target: Angiopoietin-1 receptor (Homo sapiens) (UniProt Q02763); experiment: Inhibition of TIE2 (unknown origin) at 200 nM by electrophoretic mobility shift assay
[19] = target: High affinity nerve growth factor receptor (Homo sapiens) (UniProt P04629); experiment: Inhibition of TRKA (unknown origin) at 200 nM by electrophoretic mobility shift assay
[20] = target: Tyrosine-protein kinase receptor TYRO3 (Homo sapiens) (UniProt Q06418); experiment: Inhibition of TYRO3 (unknown origin) at 200 nM by electrophoretic mobility shift assay
[21] = target: AMP-activated protein kinase, AMPK (Homo sapiens) (UniProt P54646+O43741+P54619+Q9UGJ0+Q9Y478+Q13131+Q9UGI9); experiment: Inhibition of AMPKalpha1/beta1/gama1 (unknown origin) at 200 nM by electrophoretic mobility shift assay; format: protein-complex assay
[22] = target: CDK2/Cyclin A2 (Homo sapiens) (UniProt P24941+P20248); experiment: Inhibition of CDK2/CycA2 (unknown origin) at 200 nM by electrophoretic mobility shift assay; format: protein-complex assay
[23] = target: Serine/threonine-protein kinase Chk1 (Homo sapiens) (UniProt O14757); experiment: Inhibition of CHK1 (unknown origin) at 200 nM by electrophoretic mobility shift assay
[24] = target: Casein kinase I isoform epsilon (Homo sapiens) (UniProt P49674); experiment: Inhibition of CK1 epsilon (unknown origin) at 200 nM by electrophoretic mobility shift assay
[25] = target: T2, Death-associated protein kinase 1; experiment: Inhibition of DAPK1 (unknown origin) at 200 nM by electrophoretic mobility shift assay
[26] = target: T1, Glycogen synthase kinase-3 beta; experiment: Inhibition of GSK3beta (unknown origin) at 200 nM by electrophoretic mobility shift assay
Target sequence in this assay (P49841 whole entry, looked up): as the sequence (P49841 whole entry) above

[27] = target: Serine/threonine-protein kinase 4 (Homo sapiens) (UniProt Q13043); experiment: Inhibition of MST1 (unknown origin) at 200 nM by electrophoretic mobility shift assay
[28] = target: Mitogen-activated protein kinase 14 (Homo sapiens) (UniProt Q16539); experiment: Inhibition of p38alpha (unknown origin) at 200 nM by electrophoretic mobility shift assay
Homo sapiens = organism: Homo sapiens; experiment: Inhibition of p70S6k (unknown origin) at 200 nM by electrophoretic mobility shift assay
[29] = target: T3, Serine/threonine-protein kinase pim-1; experiment: Inhibition of PIM1 (unknown origin) at 200 nM by electrophoretic mobility shift assay
[30] = target: Serine/threonine-protein kinase pim-2 (Homo sapiens, UniProt Q9P1W9); experiment: Inhibition of PIM2 (unknown origin) at 200 nM by electrophoretic mobility shift assay
[31] = target: Serine/threonine-protein kinase D2 (Homo sapiens) (UniProt Q9BZL6); experiment: Inhibition of PKD2 (unknown origin) at 200 nM by electrophoretic mobility shift assay
[32] = target: Rho-associated protein kinase 1 (Homo sapiens) (UniProt Q13464); experiment: Inhibition of ROCK1 (unknown origin) at 200 nM by electrophoretic mobility shift assay
[33] = target: MAP kinase-activated protein kinase 2 (Homo sapiens) (UniProt P49137); experiment: Inhibition of MAPKAPK2 (unknown origin) at 200 nM by electrophoretic mobility shift assay

Chain of Angiopoietin-1 receptor (Homo sapiens) (Q02763 whole entry): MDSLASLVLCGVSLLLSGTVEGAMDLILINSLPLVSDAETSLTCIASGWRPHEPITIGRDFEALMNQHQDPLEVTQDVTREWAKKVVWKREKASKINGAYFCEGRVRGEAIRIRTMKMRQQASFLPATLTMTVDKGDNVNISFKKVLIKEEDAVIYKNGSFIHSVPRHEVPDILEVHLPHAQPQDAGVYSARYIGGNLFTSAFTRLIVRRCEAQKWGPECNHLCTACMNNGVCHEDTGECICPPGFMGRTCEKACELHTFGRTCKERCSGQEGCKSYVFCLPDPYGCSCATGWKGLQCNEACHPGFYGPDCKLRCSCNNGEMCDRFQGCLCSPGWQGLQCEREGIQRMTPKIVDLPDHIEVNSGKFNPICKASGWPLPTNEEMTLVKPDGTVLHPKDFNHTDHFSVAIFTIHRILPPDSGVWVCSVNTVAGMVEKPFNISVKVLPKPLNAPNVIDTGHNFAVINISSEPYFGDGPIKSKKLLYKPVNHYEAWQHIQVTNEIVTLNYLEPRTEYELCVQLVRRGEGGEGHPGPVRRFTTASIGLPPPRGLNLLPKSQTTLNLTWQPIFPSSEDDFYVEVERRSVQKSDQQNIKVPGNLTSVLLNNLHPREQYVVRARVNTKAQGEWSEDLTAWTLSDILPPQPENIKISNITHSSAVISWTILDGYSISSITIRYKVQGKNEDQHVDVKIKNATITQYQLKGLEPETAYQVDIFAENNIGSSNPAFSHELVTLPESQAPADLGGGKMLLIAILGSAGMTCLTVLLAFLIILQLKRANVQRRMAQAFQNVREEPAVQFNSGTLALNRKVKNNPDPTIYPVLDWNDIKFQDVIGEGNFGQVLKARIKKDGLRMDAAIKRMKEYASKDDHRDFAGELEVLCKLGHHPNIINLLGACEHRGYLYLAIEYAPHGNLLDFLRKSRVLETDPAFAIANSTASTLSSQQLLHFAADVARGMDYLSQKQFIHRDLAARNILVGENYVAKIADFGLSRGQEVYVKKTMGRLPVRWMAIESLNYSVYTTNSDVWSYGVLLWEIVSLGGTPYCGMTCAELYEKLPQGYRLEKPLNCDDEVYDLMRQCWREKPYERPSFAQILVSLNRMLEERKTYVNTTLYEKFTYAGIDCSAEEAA
Chain of Rho-associated protein kinase 1 (Homo sapiens) (Q13464 2-1354 limits assumed): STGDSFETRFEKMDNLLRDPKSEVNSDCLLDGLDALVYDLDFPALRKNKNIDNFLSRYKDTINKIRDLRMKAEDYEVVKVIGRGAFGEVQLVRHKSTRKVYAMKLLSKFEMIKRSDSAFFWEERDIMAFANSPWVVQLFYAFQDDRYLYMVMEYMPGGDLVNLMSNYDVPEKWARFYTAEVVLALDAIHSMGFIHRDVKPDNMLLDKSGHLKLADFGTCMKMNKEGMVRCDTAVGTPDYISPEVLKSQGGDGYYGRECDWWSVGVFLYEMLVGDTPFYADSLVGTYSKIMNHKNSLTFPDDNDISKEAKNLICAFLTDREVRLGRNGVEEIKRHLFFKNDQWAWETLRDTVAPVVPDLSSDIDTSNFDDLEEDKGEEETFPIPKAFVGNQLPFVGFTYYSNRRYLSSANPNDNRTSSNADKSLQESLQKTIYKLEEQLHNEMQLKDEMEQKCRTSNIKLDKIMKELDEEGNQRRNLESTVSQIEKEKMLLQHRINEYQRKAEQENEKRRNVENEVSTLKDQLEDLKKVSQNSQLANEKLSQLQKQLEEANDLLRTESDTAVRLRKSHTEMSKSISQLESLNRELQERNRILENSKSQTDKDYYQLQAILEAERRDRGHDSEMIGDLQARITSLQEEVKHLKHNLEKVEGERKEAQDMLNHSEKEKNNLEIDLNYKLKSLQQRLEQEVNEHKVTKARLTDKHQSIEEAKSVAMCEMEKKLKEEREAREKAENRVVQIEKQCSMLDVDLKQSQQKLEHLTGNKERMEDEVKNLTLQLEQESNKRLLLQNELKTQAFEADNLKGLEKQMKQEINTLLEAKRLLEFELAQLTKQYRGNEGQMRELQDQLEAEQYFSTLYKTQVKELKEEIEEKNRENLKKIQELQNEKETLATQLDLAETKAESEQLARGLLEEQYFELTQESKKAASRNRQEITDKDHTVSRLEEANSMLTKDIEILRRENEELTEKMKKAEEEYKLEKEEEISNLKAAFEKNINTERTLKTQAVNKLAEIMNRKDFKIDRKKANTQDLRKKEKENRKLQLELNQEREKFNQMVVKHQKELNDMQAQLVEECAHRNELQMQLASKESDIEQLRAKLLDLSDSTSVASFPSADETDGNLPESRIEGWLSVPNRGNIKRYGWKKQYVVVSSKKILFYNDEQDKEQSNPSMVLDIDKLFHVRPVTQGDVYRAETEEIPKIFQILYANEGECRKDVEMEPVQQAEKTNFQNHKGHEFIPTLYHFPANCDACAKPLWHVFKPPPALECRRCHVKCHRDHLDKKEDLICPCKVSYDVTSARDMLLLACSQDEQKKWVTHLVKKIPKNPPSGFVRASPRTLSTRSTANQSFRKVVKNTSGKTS
Chain of Serine/threonine-protein kinase 4 (Homo sapiens) (Q13043 whole entry): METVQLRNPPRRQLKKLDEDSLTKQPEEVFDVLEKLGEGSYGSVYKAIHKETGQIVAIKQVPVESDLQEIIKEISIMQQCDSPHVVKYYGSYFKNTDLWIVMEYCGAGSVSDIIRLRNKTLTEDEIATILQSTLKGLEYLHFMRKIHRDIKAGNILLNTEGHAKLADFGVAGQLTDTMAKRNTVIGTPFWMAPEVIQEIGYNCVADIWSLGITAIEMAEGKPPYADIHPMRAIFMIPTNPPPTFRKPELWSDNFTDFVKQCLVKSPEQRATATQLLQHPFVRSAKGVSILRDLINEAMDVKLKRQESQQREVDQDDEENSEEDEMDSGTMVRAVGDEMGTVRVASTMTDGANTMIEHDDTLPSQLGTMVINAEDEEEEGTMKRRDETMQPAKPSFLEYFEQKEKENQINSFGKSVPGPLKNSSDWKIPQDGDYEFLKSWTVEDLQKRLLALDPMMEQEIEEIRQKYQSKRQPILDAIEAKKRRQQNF
Chain of Protein-tyrosine kinase 2-beta (Homo sapiens) (Q14289 whole entry, looked up): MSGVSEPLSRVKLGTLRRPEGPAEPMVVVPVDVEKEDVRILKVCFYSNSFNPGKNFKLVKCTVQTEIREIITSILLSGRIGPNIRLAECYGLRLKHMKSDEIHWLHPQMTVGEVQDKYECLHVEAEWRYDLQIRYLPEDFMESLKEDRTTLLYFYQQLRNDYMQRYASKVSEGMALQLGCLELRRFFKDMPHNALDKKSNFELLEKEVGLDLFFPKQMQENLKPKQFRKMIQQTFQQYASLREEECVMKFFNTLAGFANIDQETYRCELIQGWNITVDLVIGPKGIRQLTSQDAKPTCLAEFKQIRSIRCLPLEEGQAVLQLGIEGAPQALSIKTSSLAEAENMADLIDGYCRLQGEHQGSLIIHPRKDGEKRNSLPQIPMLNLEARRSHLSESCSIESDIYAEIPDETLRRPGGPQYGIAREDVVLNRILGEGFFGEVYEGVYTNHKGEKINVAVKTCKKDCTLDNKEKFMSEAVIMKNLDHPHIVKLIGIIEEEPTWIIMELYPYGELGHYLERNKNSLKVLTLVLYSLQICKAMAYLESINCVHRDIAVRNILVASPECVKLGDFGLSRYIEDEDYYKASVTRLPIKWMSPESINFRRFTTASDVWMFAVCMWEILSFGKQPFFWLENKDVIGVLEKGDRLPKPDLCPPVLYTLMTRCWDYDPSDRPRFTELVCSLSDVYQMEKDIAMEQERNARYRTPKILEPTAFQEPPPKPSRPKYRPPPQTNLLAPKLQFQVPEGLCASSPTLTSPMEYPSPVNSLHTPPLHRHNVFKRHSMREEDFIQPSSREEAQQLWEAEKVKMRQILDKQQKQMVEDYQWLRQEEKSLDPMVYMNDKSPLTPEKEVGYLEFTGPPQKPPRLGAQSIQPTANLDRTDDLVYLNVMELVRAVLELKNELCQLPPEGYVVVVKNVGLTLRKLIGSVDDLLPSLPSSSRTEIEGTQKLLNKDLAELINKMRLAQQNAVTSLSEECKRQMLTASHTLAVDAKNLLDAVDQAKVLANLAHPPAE
Chain of Serine/threonine-protein kinase Sgk1 (Homo sapiens) (O00141 whole entry): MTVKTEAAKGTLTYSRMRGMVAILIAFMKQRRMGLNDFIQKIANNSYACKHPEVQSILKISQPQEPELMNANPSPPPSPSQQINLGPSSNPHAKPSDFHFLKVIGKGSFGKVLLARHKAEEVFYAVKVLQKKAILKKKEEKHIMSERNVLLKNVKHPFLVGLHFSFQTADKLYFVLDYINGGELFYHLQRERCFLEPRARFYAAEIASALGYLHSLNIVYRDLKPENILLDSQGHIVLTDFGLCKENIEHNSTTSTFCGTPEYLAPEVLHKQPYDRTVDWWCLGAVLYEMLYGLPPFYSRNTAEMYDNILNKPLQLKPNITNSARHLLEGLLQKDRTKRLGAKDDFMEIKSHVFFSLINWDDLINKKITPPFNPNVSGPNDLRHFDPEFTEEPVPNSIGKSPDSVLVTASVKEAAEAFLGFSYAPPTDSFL

| inhibition [1] [%] | inhibition [2] [%] | IC50 [6] [µM] | inhibition at 10 µM (CYP3A4) [%] | inhibition [13] [%] | inhibition [14] [%] | inhibition [15] [%] | inhibition [16] [%] | inhibition [17] [%] | inhibition [18] [%] | inhibition [19] [%] | inhibition [20] [%] | inhibition [21] [%] | inhibition [22] [%] | inhibition [23] [%] | inhibition [24] [%] | inhibition [26] [%] | Structure (SMILES) | IC50 [7] [µM] | inhibition at 10 µM (hERG (KCNH2)) [%] | inhibition [25] [%] | also measured |
| --- | --- | --- | --- | --- | --- | --- | --- | --- | --- | --- | --- | --- | --- | --- | --- | --- | --- | --- | --- | --- | --- |
| 0.6 | -9.9 | 0.0025 | < 1 | -1 | 1.1 | 2 | 11.2 | 0.7 | 0.8 | 10.3 | 3.5 | 8.6 | 13.7 | 4.1 | -0.5 | 95 | COc1ccc2c(c1C(C)N1CCNCC1)O/C(=C\c1n[nH]c3ncccc13)C2=O (centres undefined) | 4 | 34 | 94.9 | IC50 [3]: 0.0061 µM; IC50 [4]: 0.012 µM; IC50 [5]: 0.0019 µM; IC50 [8]: 3.5 µM; IC50 [9]: 6.3 µM; IC50 [10]: 5.1 µM; IC50 [11]: 3.8 µM; inhibition in vivo at 30 mg/kg [12]: 52.5%; Activity (Mus musculus): Non-toxic; inhibition [27]: -7.4%; inhibition [28]: -1%; inhibition (Homo sapiens): 47.3%; inhibition [29]: 99.4%; inhibition [30]: 30.2%; inhibition [31]: 13.1%; inhibition [32]: 77% |
| 4.3 | 11.3 | 0.0018 | 39 | -8 | -3 | 3.5 | -0.4 | -0.9 | 0 | 1.8 | -2.7 | 1.3 | 28.2 | 9.2 | 3.1 | 76.5 | COc1ccc2c(c1CN1CCNCC1)O/C(=C\c1n[nH]c3ncccc13)C2=O | 5.6 | 34 | 80.5 | inhibition [33]: -1.2%; inhibition [27]: -2.3%; inhibition [28]: -1.8%; inhibition (Homo sapiens): 66.5%; inhibition [29]: 102%; inhibition [30]: 28.4%; inhibition [31]: 31.6%; inhibition [32]: 88.9% |
